ChEMBL document CHEMBL4229436, “Synthesis and biological evaluation of Complex I inhibitor R419 and its derivatives as anticancer agents in HepG2 cells” (Bioorg Med Chem Lett, 2018)
Calls of active or inactive are those of the source. The calls are words filed in the database; no cut-off is given here.

Legend:
HepG2 [1] = test: Cytotoxicity against human HepG2 cells after 72 hrs by MTT assay; assay type: functional, cell-based; conditions: HepG2, 72 h
Homo sapiens [2] = species: Homo sapiens; test: Inhibition of NADH-ubiquinone oxidoreductase (unknown origin)
[3] = molecular target: AMP-activated protein kinase, AMPK (Homo sapiens) (UniProt P54646+O43741+P54619+Q9UGJ0+Q9Y478+Q13131+Q9UGI9); test: Activation of AMPK in human HepG2 cells after 24 hrs by Western blot analysis; assay type: cell-based
A549 = test: Cytotoxicity against human A549 cells after 72 hrs by MTT assay; assay type: functional, cell-based; conditions: A549, 72 h
L02 = test: Cytotoxicity against human L02 cells after 72 hrs by MTT assay; assay type: cell-based; conditions: L02, 72 h
HepG2 [4] = test: Induction of apoptosis in human HepG2 cells assessed as necrotic cells at 0.3 uM after 40 hrs by Annexin-V-FITC/propidium iodide staining based flow cytometry (reference value: 7%); assay type: functional
HepG2 [5] = test: Induction of apoptosis in human HepG2 cells assessed as live cells at 3 uM after 40 hrs by Annexin-V-FITC/propidium iodide staining based flow cytometry (reference value: 82.6%); assay type: functional
HepG2 [6] = test: Induction of apoptosis in human HepG2 cells assessed as early apoptotic cells at 3 uM after 40 hrs by Annexin-V-FITC/propidium iodide staining based flow cytometry (reference value: 2.8%); assay type: functional
HepG2 [7] = test: Induction of apoptosis in human HepG2 cells assessed as live cells at 0.3 uM after 40 hrs by Annexin-V-FITC/propidium iodide staining based flow cytometry (reference value: 82.6%); assay type: functional
HepG2 [8] = test: Induction of apoptosis in human HepG2 cells assessed as caspase-3 cleavage at 0.1 to 30 uM after 24 hrs by Western blot analysis; assay type: functional, cell-based
HepG2 [9] = test: Induction of apoptosis in human HepG2 cells assessed as late apoptotic cells at 3 uM after 40 hrs by Annexin-V-FITC/propidium iodide staining based flow cytometry (reference value: 7.6%); assay type: functional
HepG2 [10] = test: Induction of apoptosis in human HepG2 cells assessed as PARP cleavage at 0.1 to 30 uM after 24 hrs by Western blot analysis; assay type: functional, cell-based
HepG2 [11] = test: Induction of apoptosis in human HepG2 cells assessed as necrotic cells at 3 uM after 40 hrs by Annexin-V-FITC/propidium iodide staining based flow cytometry (reference value: 7%); assay type: functional
HepG2 [12] = test: Induction of apoptosis in human HepG2 cells assessed as early apoptotic cells at 0.3 uM after 40 hrs by Annexin-V-FITC/propidium iodide staining based flow cytometry (reference value: 2.8%); assay type: functional
HepG2 [13] = test: Reduction in Bcl2 to bax ratio in human HepG2 cells at 0.1 to 30 uM after 24 hrs by Western blot analysis; assay type: functional, cell-based
HepG2 [14] = test: Induction of intracellular ATP depletion in human HepG2 cells at 0.3 uM after 44 hrs by luminescence based spectrophotometric method; assay type: functional, cell-based
HepG2 [15] = test: Induction of apoptosis in human HepG2 cells assessed as late apoptotic cells at 0.3 uM after 40 hrs by Annexin-V-FITC/propidium iodide staining based flow cytometry (reference value: 7.6%); assay type: functional
Homo sapiens [16] = species: Homo sapiens; test: Inhibition of NADH-ubiquinone oxidoreductase (unknown origin) at 50 uM
HepG2 [17] = test: Induction of intracellular ATP depletion in human HepG2 cells at 3 uM after 44 hrs by luminescence based spectrophotometric method; assay type: functional, cell-based

In the case of N#Cc1ccc(CN2CCC(NC(=O)COc3ccc4c(=O)cc(-c5ccccc5)oc4c3)CC2)cc1, the IC50 (HepG2 [1]) is reported as 9.3 µM.
With COc1ccc(C(=O)C2CCN(C(=O)c3ccc(C(=O)NC4CCN(Cc5ccc(C#N)cc5)CC4)cn3)CC2)cc1 the IC50 (HepG2 [1]) was 5.2 µM, the inhibition (Homo sapiens [2]) was “Dose-dependent effect” and the Activity [3] was “Active”. It also gave an IC50 (A549) of 19.5 µM and an IC50 (L02) of 25.9 µM.
In the case of O=C(COc1ccc2c(=O)c(-c3ccccc3)coc2c1)N1CCN(Cc2ccccc2)CC1, the IC50 (HepG2 [1]) is reported as over 20 µM.
Compound CC(C)(Oc1ccc2c(=O)cc(-c3ccccc3)oc2c1)C(=O)NC1CCN(Cc2ccc(C(F)(F)F)cc2)CC1 has an IC50 (HepG2 [1]) of over 20 µM.
In the case of O=C(COc1ccc2c(=O)cc(-c3ccccc3)oc2c1)NC1CCN(Cc2ccccc2)CC1, the IC50 (HepG2 [1]) is reported as 16.7 µM.
COc1ccc(CN2CCC(NC(=O)C(C)(C)Oc3ccc4c(=O)cc(-c5ccccc5)oc4c3)CC2)cc1 was tested, and the IC50 (HepG2 [1]) was 8.7 µM.
O=C(COc1ccc2c(=O)cc(-c3ccccc3)oc2c1)NC1CCN(C(=O)c2ccccc2)CC1 showed an IC50 (HepG2 [1]) of over 20 µM.
O=C(COc1ccc(-c2cc(=O)c3ccccc3o2)cc1)NC1CCN(Cc2ccccc2)CC1 showed an IC50 (HepG2 [1]) of 15.5 µM.
COc1ccc(CN2CCC(NC(=O)C(C)(C)Oc3ccc(-c4cc(=O)c5ccccc5o4)cc3)CC2)cc1 was tested, and the Activity (HepG2 [4]) was 11%, the Activity (HepG2 [5]) was 53.4% and the Activity (HepG2 [6]) was 0%. For the same compound, the Activity (HepG2 [7]) was 80.2%, the Activity (HepG2 [8]) was “inactive” and the IC50 (HepG2 [1]) was 2.8 µM. The Activity (HepG2 [9]) was 0.2%, the inhibition (Homo sapiens [2]) was “Dose-dependent effect” and the Activity (HepG2 [10]) was “inactive”. The Activity (HepG2 [11]) was 46.4%, the Activity (HepG2 [12]) was 1.6% and the Activity [3] was “Dose-dependent effect”. The Activity (HepG2 [13]) was “Active”, the Activity (HepG2 [14]) was “inactive” and the Activity (HepG2 [15]) was 7.3%. The IC50 (A549) was 40 µM, the inhibition (Homo sapiens [16]) was “Active” and the IC50 (L02) was 17.6 µM. For the same compound, the Activity (HepG2 [17]) was “Active”.
N#Cc1ccc(CN2CCC(NC(=O)COc3ccc4c(=O)c(-c5ccccc5)coc4c3)CC2)cc1 was tested, and the IC50 (HepG2 [1]) was over 20 µM.
O=C(COc1ccc2c(=O)c(-c3ccccc3)coc2c1)NC1CCN(Cc2ccccc2)CC1 showed an IC50 (HepG2 [1]) of over 20 µM.
N#Cc1ccc(CN2CCC(NC(=O)COc3ccc(-c4cc(=O)c5ccccc5o4)cc3)CC2)cc1 was tested, and the IC50 (HepG2 [1]) was 6.7 µM.
For O=C(COc1ccc(-c2cc(=O)c3ccccc3o2)cc1)N1CCN(Cc2ccccc2)CC1, the IC50 (HepG2 [1]) was over 20 µM.
COc1ccc(CN2CCC(NC(=O)COc3ccc(-c4cc(=O)c5ccccc5o4)cc3)CC2)cc1 showed an IC50 (HepG2 [1]) of 6.8 µM.
For CC(C)(Oc1ccc2c(=O)cc(-c3ccccc3)oc2c1)C(=O)NC1CCN(Cc2ccccc2)CC1, the IC50 (HepG2 [1]) was 14 µM.
CC(C)(Oc1ccc(-c2cc(=O)c3ccccc3o2)cc1)C(=O)NC1CCN(Cc2ccccc2)CC1 showed an IC50 (HepG2 [1]) of over 20 µM.
With O=C(COc1ccc(-c2cc(=O)c3ccccc3o2)cc1)NC1CCN(C(=O)c2ccccc2)CC1 the IC50 (HepG2 [1]) was over 20 µM.
With O=C(COc1ccc2c(=O)cc(-c3ccccc3)oc2c1)N1CCN(Cc2ccccc2)CC1 the IC50 (HepG2 [1]) was over 20 µM.
With O=C(COc1ccc2c(=O)cc(-c3ccccc3)oc2c1)NC1CCN(Cc2ccc(C(F)(F)F)cc2)CC1 the IC50 (HepG2 [1]) was 7.2 µM.
For COc1ccc(CN2CCC(NC(=O)COc3ccc4c(=O)c(-c5ccccc5)coc4c3)CC2)cc1, the IC50 (HepG2 [1]) was over 20 µM.
In the case of CC(C)(Oc1ccc2c(=O)c(-c3ccccc3)coc2c1)C(=O)NC1CCN(Cc2ccccc2)CC1, the IC50 (HepG2 [1]) is reported as over 20 µM.
